Experimental data as given in US8642657B2 (Gruenenthal GmbH, priority 2003, dated 2014).

Assays:
rat VR1 [1] = molecular target: T1, rat VR1 (Rattus norvegicus, UniProt O35433); assay: [3H]resiniferatoxin (RTX) competition binding assay, VR1-transfected CHO cells
T1 construct: expressed in transfected cells
Procedure: The pUHG102 VR1 plasmid was transfected into CHO cells containing the pTet Off regulatory plasmid (Clontech). In these cells, expression of the VR1 is repressed in the presence of tetracycline but is induced upon removal of the antibiotic. Stable clones were isolated in culture medium containing puromycin (10 μg/mL) and maintained in HAM F12 medium supplemented with tetracycline (1 μg/mL), 5 μg/ml geniticin, 25 mM HEPES, 10% FBS. Cells utilized for assays were grown in culture medium without antibiotic for 48 h before use. Cells were seeded in T75 cell culture flasks in media without antibiotics and grown to approximately 90% confluence. The flasks were then washed with PBS and harvested in 0.25% trypsin, 1 mM EDTA. The cells were pelleted by gentle centrifugation and stored at −20° C. until assay.
Competition Binding Assay
Binding studies with [^3H]resiniferatoxin (RTX) were carried out as described previously with minor modifications (Szallasi et al., 1992). Binding assay mixtures were set up on ice and contained 50-100 pM [^3H]RTX, various concentrations of competing ligands, 0.25 mg/mL BSA (Cohn fraction V), and about 5×10^5 VR1-transfected cells. The final volume was adjusted to 350 μL with DPBS with Ca^2+ and Mg^2+ and 0.25 mg/mL bovine serum albumin. Non-specific binding was determined in the presence of 100 nM nonradioactive RTX. The binding reaction was initiated by transferring the assay mixtures to a 37° C. water bath and was terminated after a 60 min incubation period by cooling the tubes on ice. To reduce non-specific binding, 200 μg/ml α-glycoprotein was added. Membrane-bound RTX was then separated from the free by pelleting the membranes in a Beckman 12 benchtop centrifuge (15 min, maximal velocity), the tips of the tubes containing the pellets were cut off, and the radioactivity was determined by scintillation counting. Equilibrium binding parameters (Ki and cooperativity) were determined by fitting the Hill equation to the measured values with the aid of the program MicroCal Origin 6.0.
(§1) Initial stocks were dissolved in DMSO. For the binding assays, compounds were diluted in with DPBS with Ca^2+ and Mg^2+ and 0.25 mg/mL bovine serum albumin. For the calcium uptake assays, compounds were diluted in DMEM with 0.25 mg/mL bovine serum albumin.

rat VR1 [2] = molecular target: T1, rat VR1; assay: 45Ca2+-uptake assay in CHO/VR1 cells, antagonism of capsaicin-stimulated uptake; assay type: cell-based; settings: 45Ca2+ uptake stimulated by 50 nM capsaicin
Procedure: as §1
Molecules were characterized to determine whether they were full agonists, partial agonists, or antagonists. For studies of ^45Ca^2+ uptake by CHO/VR1 cells (Tet-off cells), the cells were plated in 24-well plates to yield a cell density 20-40% of that required to produce confluence. The next day the medium was changed to remove the tetracycline and induce VR1 expression. Experiments were performed approximately 36-40 hours after induction. For ^45Ca^2+ uptake assay, cells were incubated for 5 min at 37° C. in a total volume of 400 μL of serum free DMEM (containing 1.8 mM CaCl2) in the presence of 0.25 mg/mL BSA (Sigma), 1 μCi/mL ^45Ca^2+ (5-30 Ci/g from ICN, CA), and increasing concentrations of the compound to be tested. Immediately after the incubation, extracellular ^45Ca^2+ was removed by washing the cells three times with cold DPBS (containing 1.8 mM CaCl2). Then 400 μl RIPA buffer (50 mM Tris pH 7.4; 150 mM NaCl; 1% Triton X-100; 0.1% SDS; 1% sodium deoxycholate) was added to each well in order to lyse the cells. Plates were shaken slowly for 20 min; then 306 μL of cell lysate was transferred from each well into a scintillation vial and radioactivity was determined by scintillation counting. For each data point in each experiment, four wells were assayed. Data from these experiments were analyzed by computer fit to the Hill equation. At least 3 separate experiments were carried out for each compound. In order to determine antagonist activity, studies were performed in exactly the same fashion with the exception that 50 nM capsaicin was added to the assay mixture to stimulate ^45Ca^2+ uptake.

[3] = competition with [3H]RTX, rat VR1 in CHO cells, read-out: Ki (nM) Binding Affinity

T1 sequence (O35433 whole entry): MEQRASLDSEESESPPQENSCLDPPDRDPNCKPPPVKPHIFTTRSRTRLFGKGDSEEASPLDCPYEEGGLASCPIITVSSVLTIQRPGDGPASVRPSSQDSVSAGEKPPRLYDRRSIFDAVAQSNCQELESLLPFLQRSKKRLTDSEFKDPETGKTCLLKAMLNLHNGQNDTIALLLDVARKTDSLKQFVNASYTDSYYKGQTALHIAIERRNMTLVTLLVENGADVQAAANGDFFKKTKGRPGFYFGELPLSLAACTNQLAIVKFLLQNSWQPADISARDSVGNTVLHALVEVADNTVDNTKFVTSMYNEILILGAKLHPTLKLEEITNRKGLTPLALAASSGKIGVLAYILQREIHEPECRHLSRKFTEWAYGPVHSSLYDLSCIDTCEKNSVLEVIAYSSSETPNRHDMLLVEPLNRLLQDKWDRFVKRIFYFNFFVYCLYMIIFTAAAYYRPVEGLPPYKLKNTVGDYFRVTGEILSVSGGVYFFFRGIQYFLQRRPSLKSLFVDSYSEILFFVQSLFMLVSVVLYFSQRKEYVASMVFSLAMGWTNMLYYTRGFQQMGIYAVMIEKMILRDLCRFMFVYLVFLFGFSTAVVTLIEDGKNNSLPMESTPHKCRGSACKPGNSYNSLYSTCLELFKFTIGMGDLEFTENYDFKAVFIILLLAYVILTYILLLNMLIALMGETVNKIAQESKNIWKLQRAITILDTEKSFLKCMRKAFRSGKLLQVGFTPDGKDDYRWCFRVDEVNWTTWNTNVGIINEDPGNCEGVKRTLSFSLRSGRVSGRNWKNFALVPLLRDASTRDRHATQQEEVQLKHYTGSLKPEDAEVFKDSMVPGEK

Cc1ccc(CC(CNC(=O)C(C)c2ccc(NS(C)(=O)=O)c(Cl)c2)COC(=O)C(C)(C)C)cc1C (stereo not shown) [5-7, N-[2-(3,4-Dimethylbenzyl)-3-pivaloyloxypropyl]-2-[3-chloro-4-(methylsulfonylamino)phenyl]propionamide]
Ki (rat VR1 [1]; [3]): 11.3 nM | Ki (rat VR1 [2]): 35.7 nM | melting point: 127 to 129 °C

CC(NC(=S)NCC(COC(=O)C(C)(C)C)Cc1ccc(C(C)(C)C)cc1)c1ccc(NS(C)(=O)=O)cc1 (stereo not shown) [18-9, N-[2-(4-tert-Butylbenzyl)-3-(pivaloyloxy)propyl]-N′-{1-[4-(methylsulfonylamino)phenyl]ethyl}thiourea]
Ki (rat VR1 [1]): 42.7 nM | Ki (rat VR1 [2]): 28.7 nM | melting point: 87 °C

Cc1ccc(CC(CNC(=O)C(C)(C)c2ccc(NS(C)(=O)=O)c(F)c2)COC(=O)C(C)(C)C)cc1C (stereo not shown) [9-2, N-[2-(3,4-Dimethylbenzyl)-3-pivaloyloxypropyl]-2-[3-fluoro-4-(methylsulfonylamino)phenyl]-2-methylpropionamide]
Ki (rat VR1 [1]): 276 nM | Ki (rat VR1 [2]): 65.4 nM | melting point: 53 to 55 °C

COc1cc(C(C)NC(=S)NCc2ccc(C(C)(C)C)cc2)ccc1NS(C)(=O)=O (stereo not shown) [15-3, N-(4-t-Butylbenzyl)-N′-{1-[3-methoxy-4-(methylsulfonylamino)phenyl]ethyl}thiourea]
Ki (rat VR1 [1]; [3]): 66.5 nM | Ki (rat VR1 [2]): 28.6 nM | melting point: 80 to 82 °C

COc1cc(C2(C(=O)NCCCc3ccc(C)c(C)c3)CC2)ccc1NS(C)(=O)=O [12-6, N-[3-(3,4-Dimethylphenyl)propyl]-1-[3-methoxy-4-(methylsulfonylamino)phenyl]cyclopropanecarboxamide]
Ki (rat VR1 [1]): 1700 nM | Ki (rat VR1 [2]): 1240 nM | melting point: 88 to 89 °C

CC(C(=O)NCc1ccc(Cl)c(Cl)c1)c1ccc(NS(C)(=O)=O)c(F)c1 (stereo not shown) [4-4, N-(3,4-Dichlorobenzyl)-2-[3-fluoro-4-(methylsulfonylamino)phenyl]propionamide]
Ki (rat VR1 [1]; [3]): 199 nM | Ki (rat VR1 [2]): 115 nM | melting point: 130 to 133 °C

CC(C(=O)NCC=C1c2ccccc2CCc2ccccc21)c1ccc(NS(C)(=O)=O)c(F)c1 (stereo not shown) [4-28, N-[2-(10,11-Dihydro-5H-dibenzo[a,d]cyclohepten-5-yliden)ethyl]-2-[3-fluoro-4-(methylsulfonylamino)phenyl]propionamide]
Ki (rat VR1 [1]; [3]): 141 nM | Ki (rat VR1 [2]): 121 nM | melting point: 67 to 69 °C

N-{1-[3-Fluoro-4-(methylsulfonylamino)phenyl]ethyl}-3-(4-chlorophenyl)propenamide [24-6]
Ki (rat VR1 [2]): 5650 nM

COc1ccc(CNC(=O)C(C)c2ccc(NS(C)(=O)=O)c(F)c2)cc1 (stereo not shown) [4-9, N-(4-Methoxybenzyl)-2-[3-fluoro-4-(methylsulfonylamino)phenyl]propionamide]
Ki (rat VR1 [2]): 1350 nM | melting point: 138 °C

C[C@H](NC(=S)NCc1ccc(C(C)(C)C)cc1)c1ccc(NS(C)(=O)=O)c(F)c1 [17-8, (S)—N-(4-t-Butylbenzyl)-N′-{1-[3-fluoro-4-(methylsulfonylamino)phenyl]ethyl}thiourea]
Ki (rat VR1 [1]): 2580 nM | Ki (rat VR1 [2]): 4310 nM

C[C@@H](NC(=S)NCc1ccc(C(C)(C)C)cc1)c1ccc(NS(C)(=O)=O)cc1 [16-5, N-(4-t-Butylbenzyl)-N′-{(1R)-1-[4-(methylsulfonylamino)phenyl]ethyl}thiourea]
Ki (rat VR1 [1]; [3]): 40.8 nM | Ki (rat VR1 [2]): 4.52 nM

Oc1cc2c(cc1O)CN(C(=S)NCCc1ccc(Cl)cc1)CCC2 [capsazepine, reference compound]
Ki (rat VR1 [1]; [3]): 1300 nM | Ki (rat VR1 [2]): 520 nM

C[C@@H](C(=O)NC[C@H](COC(=O)C(C)(C)C)Cc1ccccc1)c1ccc(NS(C)(=O)=O)c(F)c1 [6-8, N-[(2R)-2-Benzyl-3-(pivaloyloxy)propyl]-(2R)-2-[3-fluoro-4-(methylsulfonylamino)phenyl]propionamide]
Ki (rat VR1 [1]; [3]): 297 nM | Ki (rat VR1 [2]): 98.3 nM

Cc1ccc(C[C@H](CNC(=S)N[C@H](C)c2ccc(NS(C)(=O)=O)cc2)COC(=O)C(C)(C)C)cc1C [18-7, N-[(2R)-2-(3,4-Dimethylbenzyl)-3-(pivaloyloxy)propyl]-N′-{(1R)-1-[4-(methylsulfonylamino)phenyl]ethyl}thiourea]
Ki (rat VR1 [1]): 15.2 nM | Ki (rat VR1 [2]): 7.14 nM

Cc1ccc(CCCNC(=O)[C@@H](C)c2ccc(NS(C)(=O)=O)c(F)c2)cc1C [4-17, N-[3-(3,4-Dimethylphenyl)propyl]-(2S)-2-[3-fluoro-4-(methylsulfonylamino)phenyl]propionamide]
Ki (rat VR1 [1]): 236 nM | Ki (rat VR1 [2]): 33.7 nM

C[C@H](C(=O)NC[C@@H](COC(=O)C(C)(C)C)Cc1ccccc1)c1ccc(NS(C)(=O)=O)c(F)c1 [6-6, N-[(2S)-2-Benzyl-3-(pivaloyloxy)propyl]-(2S)-2-[3-fluoro-4-(methylsulfonylamino)phenyl]propionamide]
Ki (rat VR1 [1]; [3]): 20.3 nM | Ki (rat VR1 [2]): 10 nM

Cc1ccc(CC(CNC(=S)N[C@H](C)c2ccc(NS(C)(=O)=O)cc2)COC(=O)C(C)(C)C)cc1C (stereo partly drawn) [18-6, N-[2-(3,4-Dimethylbenzyl)-3-(pivaloyloxy)propyl]-N′-{(1R)-1-[4-(methylsulfonylamino)phenyl]ethyl}thiourea]
Ki (rat VR1 [1]): 6.1 nM | Ki (rat VR1 [2]): 6.86 nM

Cc1ccc(CCC(=O)NC(C)c2ccc(NS(C)(=O)=O)c(F)c2)cc1C (stereo not shown) [24-4, N-{1-[3-Fluoro-4-(methylsulfonylamino)phenyl]ethyl}-3-(3,4-dimethylphenyl)propanamide]
Ki (rat VR1 [2]): 4130 nM | melting point: 176 to 177 °C

C[C@@H](NC(=S)NCc1ccc(C(C)(C)C)cc1)c1ccc(NS(C)(=O)=O)c(F)c1 [17-7, (R)—N-(4-t-Butylbenzyl)-N′-{1-[3-fluoro-4-(methylsulfonylamino)phenyl]ethyl}thiourea]
Ki (rat VR1 [1]): 32.8 nM | Ki (rat VR1 [2]): 39.4 nM

C[C@@H](C(=O)NCc1ccc(C(C)(C)C)cc1)c1ccc(NS(C)(=O)=O)c(F)c1 [3-6, N-(4-tert-Butylbenzyl)-(2R)-2-[3-fluoro-4-(methylsulfonylamino)phenyl]propionamide]
Ki (rat VR1 [1]): 458 nM | Ki (rat VR1 [2]): 102 nM

C[C@@H](NC(=S)N[C@H](COC(=O)C(C)(C)C)Cc1ccccc1)c1ccc(NS(C)(=O)=O)cc1 [19-14, N-[(2S)-3-phenyl-1-pivaloyloxy-2-propyl]-N′-[(R)-α-methyl-4-(methylsulfonylamino)benzy]thiourea]
Ki (rat VR1 [1]): 272 nM | Ki (rat VR1 [2]): 290 nM

N-(4-t-Butylbenzyl)-N-{1-[4-(methylsulfonylamino)phenyl]ethyl}thiourea [15-1]
Ki (rat VR1 [1]; [3]): 59.3 nM | Ki (rat VR1 [2]): 14.7 nM

Cc1ccc(CCCNC(=O)[C@H](C)c2ccc(NS(C)(=O)=O)c(F)c2)cc1C [4-16, N-[3-(3,4-Dimethylphenyl)propyl]-(2R)-2-[3-fluoro-4-(methylsulfonylamino)phenyl]propionamide]
Ki (rat VR1 [1]; [3]): 944 nM | Ki (rat VR1 [2]): 204 nM

C[C@H](C(=O)NCc1ccc(C(C)(C)C)cc1)c1ccc(NS(C)(=O)=O)c(F)c1 [3-5, N-(4-tert-Butylbenzyl)-(2S)-2-[3-fluoro-4-(methylsulfonylamino)phenyl]propionamide]
Ki (rat VR1 [1]): 43.9 nM | Ki (rat VR1 [2]): 6.87 nM

C[C@@H](C(=O)NC[C@@H](COC(=O)C(C)(C)C)Cc1ccccc1)c1ccc(NS(C)(=O)=O)c(F)c1 [6-7, N-[(2S)-2-Benzyl-3-(pivaloyloxy)propyl]-(2R)-2-[3-fluoro-4-(methylsulfonylamino)phenyl]propionamide]
Ki (rat VR1 [1]; [3]): 372 nM | Ki (rat VR1 [2]): 205 nM

CC(C)(C)c1ccc(CNC(=S)NC(C)(C)c2ccc(NS(C)(=O)=O)cc2)cc1 [21-7, N-(4-t-Butylbenzyl)-N′-{1-methyl-1-[4-(methylsulfonylamino)phenyl]ethyl}thiourea]
Ki (rat VR1 [2]): 1830 nM | melting point: 161 to 164 °C
